ChEMBL document CHEMBL5291721, “A preclinical secondary pharmacology resource illuminates target-adverse drug reaction associations of marketed drugs” (Nat Commun, 2023)

What was measured:
[1] = molecular target: T1, Adenosine receptor A1 (Homo sapiens, UniProt P30542)
T1 sequence (P30542 whole entry): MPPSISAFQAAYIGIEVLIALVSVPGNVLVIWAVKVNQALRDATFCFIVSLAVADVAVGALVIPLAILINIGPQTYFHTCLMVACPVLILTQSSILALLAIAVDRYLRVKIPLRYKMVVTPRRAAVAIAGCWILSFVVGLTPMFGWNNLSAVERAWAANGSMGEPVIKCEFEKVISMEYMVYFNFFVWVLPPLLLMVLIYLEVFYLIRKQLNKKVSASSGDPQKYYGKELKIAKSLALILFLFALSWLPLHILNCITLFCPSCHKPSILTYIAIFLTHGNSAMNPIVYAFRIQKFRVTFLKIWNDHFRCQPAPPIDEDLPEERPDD

[2] = molecular target: Beta-2 adrenergic receptor (Homo sapiens, UniProt P07550); type: functional, cell-based
Sequence of Beta-2 adrenergic receptor (P07550 whole entry): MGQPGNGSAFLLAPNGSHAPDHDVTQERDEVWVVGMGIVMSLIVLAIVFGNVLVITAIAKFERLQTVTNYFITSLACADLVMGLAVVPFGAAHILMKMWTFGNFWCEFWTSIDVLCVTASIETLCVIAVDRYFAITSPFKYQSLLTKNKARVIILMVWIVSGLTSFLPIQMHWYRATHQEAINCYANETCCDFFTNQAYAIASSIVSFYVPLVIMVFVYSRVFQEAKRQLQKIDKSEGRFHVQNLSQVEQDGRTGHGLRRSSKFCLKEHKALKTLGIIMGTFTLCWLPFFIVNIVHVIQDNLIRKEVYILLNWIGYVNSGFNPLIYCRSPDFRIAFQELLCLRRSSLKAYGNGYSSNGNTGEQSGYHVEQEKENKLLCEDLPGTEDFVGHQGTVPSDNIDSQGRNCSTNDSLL

[3] = molecular target: Neuronal acetylcholine receptor subunit alpha-4 (Homo sapiens, UniProt P43681)
Sequence of Neuronal acetylcholine receptor subunit alpha-4 (P43681 whole entry): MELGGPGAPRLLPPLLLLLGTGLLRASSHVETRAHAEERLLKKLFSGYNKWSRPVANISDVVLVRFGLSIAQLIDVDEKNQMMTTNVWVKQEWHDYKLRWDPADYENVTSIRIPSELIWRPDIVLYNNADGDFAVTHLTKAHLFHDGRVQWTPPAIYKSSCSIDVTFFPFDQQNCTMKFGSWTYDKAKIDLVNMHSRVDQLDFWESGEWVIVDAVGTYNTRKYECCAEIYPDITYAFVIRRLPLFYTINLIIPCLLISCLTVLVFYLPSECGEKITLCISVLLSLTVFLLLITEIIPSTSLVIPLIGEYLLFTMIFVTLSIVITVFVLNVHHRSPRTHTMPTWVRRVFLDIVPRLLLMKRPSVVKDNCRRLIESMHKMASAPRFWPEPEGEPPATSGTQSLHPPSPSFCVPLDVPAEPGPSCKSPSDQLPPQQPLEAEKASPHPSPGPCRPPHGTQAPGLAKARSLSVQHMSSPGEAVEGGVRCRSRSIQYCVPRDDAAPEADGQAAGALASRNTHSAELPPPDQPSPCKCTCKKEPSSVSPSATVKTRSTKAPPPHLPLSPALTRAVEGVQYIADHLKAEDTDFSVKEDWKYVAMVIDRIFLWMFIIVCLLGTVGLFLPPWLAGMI

[4] = molecular target: Gamma-aminobutyric acid receptor subunit alpha-1/alpha-2/beta-2/gamma-2 (Homo sapiens, UniProt P14867+P18507+P47869+P47870); type: functional, cell-based
Sequence of Gamma-aminobutyric acid receptor subunit alpha-1/alpha-2/beta-2/gamma-2 (P14867 whole entry): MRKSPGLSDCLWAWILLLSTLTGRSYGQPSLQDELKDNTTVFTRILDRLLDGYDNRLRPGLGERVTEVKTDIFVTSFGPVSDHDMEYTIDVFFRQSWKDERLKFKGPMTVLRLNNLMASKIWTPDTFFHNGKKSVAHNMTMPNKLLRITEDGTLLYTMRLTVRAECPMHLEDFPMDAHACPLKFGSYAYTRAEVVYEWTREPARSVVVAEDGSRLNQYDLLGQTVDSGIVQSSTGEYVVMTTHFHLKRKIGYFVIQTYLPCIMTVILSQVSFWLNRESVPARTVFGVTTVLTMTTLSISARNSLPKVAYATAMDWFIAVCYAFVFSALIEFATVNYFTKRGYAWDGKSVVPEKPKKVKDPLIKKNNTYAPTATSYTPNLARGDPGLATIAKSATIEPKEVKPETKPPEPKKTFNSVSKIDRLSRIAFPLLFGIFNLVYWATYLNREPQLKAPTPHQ
Sequence of Gamma-aminobutyric acid receptor subunit alpha-1/alpha-2/beta-2/gamma-2 (P47870 whole entry): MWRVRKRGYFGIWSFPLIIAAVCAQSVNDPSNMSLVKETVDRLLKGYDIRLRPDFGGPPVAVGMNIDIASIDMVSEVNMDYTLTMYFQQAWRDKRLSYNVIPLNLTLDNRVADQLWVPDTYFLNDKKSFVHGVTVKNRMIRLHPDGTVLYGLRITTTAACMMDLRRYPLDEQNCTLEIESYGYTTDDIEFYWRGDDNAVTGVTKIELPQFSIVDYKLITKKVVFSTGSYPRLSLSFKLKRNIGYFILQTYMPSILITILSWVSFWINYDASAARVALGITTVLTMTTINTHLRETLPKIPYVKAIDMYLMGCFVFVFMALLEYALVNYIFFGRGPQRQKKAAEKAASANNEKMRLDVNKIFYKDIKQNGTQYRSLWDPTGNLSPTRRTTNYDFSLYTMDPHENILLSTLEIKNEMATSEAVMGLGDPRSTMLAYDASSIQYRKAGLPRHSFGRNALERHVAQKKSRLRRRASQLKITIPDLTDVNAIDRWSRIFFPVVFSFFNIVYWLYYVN
Sequence of Gamma-aminobutyric acid receptor subunit alpha-1/alpha-2/beta-2/gamma-2 (P18507 whole entry): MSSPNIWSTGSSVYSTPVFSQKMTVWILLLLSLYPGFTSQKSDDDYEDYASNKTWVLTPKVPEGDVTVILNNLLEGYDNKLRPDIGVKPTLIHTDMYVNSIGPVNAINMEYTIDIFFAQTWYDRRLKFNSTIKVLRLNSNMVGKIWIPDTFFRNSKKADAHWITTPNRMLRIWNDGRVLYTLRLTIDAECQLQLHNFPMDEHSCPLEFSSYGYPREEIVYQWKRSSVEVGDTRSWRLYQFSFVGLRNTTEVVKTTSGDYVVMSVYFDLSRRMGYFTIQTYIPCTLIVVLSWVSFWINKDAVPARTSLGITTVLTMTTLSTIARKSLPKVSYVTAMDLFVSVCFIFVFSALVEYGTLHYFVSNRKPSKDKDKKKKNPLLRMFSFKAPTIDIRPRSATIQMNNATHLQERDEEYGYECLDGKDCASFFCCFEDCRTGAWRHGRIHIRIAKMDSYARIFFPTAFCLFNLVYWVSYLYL
Sequence of Gamma-aminobutyric acid receptor subunit alpha-1/alpha-2/beta-2/gamma-2 (P47869 whole entry): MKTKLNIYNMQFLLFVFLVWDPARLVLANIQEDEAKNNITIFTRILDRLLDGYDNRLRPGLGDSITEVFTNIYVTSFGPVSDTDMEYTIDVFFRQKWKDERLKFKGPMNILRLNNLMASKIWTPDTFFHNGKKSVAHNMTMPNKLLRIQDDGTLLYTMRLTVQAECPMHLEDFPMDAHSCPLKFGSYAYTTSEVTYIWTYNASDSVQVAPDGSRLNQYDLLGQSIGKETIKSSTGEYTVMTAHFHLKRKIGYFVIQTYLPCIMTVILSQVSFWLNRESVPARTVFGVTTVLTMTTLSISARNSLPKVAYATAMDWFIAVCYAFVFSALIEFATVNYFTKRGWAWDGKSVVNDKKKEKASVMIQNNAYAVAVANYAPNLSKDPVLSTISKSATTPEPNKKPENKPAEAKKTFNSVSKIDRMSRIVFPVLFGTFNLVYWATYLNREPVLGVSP

[5] = molecular target: Glutamate receptor ionotropic, NMDA 1 (Rattus norvegicus, UniProt P35439)
[6] = molecular target: T2, 5-hydroxytryptamine receptor 1A (Homo sapiens, UniProt P08908); type: functional, cell-based
T2 sequence (P08908 whole entry): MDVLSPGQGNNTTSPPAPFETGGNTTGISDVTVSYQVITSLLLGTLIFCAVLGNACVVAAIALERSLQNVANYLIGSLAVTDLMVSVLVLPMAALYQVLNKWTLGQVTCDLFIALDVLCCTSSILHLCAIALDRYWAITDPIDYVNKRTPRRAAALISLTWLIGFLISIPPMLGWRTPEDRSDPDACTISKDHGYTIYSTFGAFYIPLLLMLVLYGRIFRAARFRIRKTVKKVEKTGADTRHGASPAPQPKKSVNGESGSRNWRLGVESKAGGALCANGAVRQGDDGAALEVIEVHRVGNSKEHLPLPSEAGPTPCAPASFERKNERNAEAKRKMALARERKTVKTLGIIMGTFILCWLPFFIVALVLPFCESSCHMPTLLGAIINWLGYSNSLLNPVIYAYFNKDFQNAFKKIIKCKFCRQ

[7] = molecular target: T3, 5-hydroxytryptamine receptor 3A (Homo sapiens, UniProt P46098); type: functional
T3 sequence (P46098 whole entry): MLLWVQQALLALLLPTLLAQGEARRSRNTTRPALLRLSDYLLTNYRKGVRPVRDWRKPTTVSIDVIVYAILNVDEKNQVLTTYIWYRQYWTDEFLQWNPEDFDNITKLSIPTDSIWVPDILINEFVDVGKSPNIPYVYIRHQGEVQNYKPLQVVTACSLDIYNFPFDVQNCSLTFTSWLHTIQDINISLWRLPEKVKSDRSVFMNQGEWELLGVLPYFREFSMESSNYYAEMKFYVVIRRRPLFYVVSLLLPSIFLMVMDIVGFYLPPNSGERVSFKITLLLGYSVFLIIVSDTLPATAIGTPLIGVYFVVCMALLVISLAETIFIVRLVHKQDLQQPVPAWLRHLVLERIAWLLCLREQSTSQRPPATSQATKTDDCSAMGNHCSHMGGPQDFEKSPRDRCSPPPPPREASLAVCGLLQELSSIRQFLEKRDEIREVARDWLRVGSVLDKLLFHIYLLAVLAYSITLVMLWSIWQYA

[8] = molecular target: Voltage-gated inwardly rectifying potassium channel KCNH2 (Homo sapiens, UniProt Q12809); type: functional; settings: read-out: AC50
Sequence of Voltage-gated inwardly rectifying potassium channel KCNH2 (Q12809 whole entry): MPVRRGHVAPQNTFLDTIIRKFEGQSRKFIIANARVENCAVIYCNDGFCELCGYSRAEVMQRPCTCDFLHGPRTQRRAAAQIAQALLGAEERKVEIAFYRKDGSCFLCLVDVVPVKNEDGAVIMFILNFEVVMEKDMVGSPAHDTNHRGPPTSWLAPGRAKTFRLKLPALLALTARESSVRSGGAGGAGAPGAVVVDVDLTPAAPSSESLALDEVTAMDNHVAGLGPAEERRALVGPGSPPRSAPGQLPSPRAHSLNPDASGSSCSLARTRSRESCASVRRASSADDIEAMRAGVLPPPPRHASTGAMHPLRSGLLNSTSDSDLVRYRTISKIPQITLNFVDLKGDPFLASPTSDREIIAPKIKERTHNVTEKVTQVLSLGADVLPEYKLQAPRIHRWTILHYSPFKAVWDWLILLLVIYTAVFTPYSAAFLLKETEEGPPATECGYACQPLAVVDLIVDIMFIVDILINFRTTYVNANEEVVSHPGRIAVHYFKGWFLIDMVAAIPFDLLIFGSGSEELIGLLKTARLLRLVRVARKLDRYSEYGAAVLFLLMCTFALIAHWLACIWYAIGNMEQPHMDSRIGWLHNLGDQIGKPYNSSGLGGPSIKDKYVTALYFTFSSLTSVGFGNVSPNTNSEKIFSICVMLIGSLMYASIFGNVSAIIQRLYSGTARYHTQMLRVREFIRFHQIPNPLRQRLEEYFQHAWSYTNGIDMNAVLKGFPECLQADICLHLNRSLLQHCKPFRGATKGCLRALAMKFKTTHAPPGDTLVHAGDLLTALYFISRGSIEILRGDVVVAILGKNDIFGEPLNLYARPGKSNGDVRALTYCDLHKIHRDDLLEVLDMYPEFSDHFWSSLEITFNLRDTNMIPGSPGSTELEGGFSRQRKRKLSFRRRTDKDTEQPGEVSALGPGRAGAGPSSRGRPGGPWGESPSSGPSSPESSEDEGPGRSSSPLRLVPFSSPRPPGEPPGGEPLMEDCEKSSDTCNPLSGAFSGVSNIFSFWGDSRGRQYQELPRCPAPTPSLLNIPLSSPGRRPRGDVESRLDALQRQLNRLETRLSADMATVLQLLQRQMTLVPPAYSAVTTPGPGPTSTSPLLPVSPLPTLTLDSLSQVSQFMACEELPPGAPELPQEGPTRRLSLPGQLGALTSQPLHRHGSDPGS

[9] = molecular target: T4, Mu-type opioid receptor (Homo sapiens, UniProt P35372); experiment: biochemical; type: functional
T4 sequence (P35372 whole entry): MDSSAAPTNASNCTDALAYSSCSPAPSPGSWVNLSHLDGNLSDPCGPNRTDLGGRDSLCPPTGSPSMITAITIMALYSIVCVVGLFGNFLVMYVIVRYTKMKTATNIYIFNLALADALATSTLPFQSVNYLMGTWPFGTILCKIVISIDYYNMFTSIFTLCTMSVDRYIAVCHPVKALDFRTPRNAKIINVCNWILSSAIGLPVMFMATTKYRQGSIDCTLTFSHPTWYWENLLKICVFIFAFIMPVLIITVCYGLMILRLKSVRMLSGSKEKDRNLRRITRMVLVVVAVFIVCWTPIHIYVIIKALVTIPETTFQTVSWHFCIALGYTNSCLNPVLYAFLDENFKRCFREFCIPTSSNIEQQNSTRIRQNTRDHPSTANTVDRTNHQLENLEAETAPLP

[10] = molecular target: T4, Mu-type opioid receptor
[11] = molecular target: T5, Estrogen receptor (Homo sapiens, UniProt P03372)
T5 sequence (P03372 whole entry): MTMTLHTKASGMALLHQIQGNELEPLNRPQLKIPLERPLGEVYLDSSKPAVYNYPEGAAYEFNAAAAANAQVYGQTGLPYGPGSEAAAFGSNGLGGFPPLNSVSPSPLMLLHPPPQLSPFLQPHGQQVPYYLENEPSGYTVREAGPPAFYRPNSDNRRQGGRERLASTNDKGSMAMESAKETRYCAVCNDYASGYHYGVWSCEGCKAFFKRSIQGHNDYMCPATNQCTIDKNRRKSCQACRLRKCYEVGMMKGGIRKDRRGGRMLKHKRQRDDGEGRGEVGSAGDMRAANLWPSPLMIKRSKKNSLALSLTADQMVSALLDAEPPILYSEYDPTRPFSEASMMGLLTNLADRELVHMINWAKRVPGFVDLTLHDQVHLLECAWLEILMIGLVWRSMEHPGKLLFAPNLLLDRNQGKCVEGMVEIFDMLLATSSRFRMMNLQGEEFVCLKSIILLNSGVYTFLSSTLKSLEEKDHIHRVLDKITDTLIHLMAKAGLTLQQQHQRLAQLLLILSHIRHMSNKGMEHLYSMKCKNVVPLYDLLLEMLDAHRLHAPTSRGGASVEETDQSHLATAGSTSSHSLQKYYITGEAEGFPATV

[12] = molecular target: T6, Alpha-1A adrenergic receptor (Homo sapiens, UniProt P35348)
T6 sequence (P35348 whole entry): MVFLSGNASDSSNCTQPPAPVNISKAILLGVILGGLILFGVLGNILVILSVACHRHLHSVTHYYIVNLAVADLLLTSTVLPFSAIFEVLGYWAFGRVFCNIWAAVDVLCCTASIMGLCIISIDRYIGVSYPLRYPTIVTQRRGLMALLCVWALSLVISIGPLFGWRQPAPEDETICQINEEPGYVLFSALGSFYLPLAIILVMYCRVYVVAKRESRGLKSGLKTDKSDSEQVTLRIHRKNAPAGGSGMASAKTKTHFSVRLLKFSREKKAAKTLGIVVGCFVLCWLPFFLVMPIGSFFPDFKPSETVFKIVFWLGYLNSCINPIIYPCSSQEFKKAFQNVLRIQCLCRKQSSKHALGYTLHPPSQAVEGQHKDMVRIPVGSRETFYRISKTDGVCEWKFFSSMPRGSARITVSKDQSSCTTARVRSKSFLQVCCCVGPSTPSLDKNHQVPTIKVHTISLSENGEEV

[13] = molecular target: Cannabinoid receptor 1 (Homo sapiens, UniProt P21554)
[14] = molecular target: Melanocortin receptor 4 (Homo sapiens, UniProt P32245)
Sequence of Melanocortin receptor 4 (P32245 whole entry): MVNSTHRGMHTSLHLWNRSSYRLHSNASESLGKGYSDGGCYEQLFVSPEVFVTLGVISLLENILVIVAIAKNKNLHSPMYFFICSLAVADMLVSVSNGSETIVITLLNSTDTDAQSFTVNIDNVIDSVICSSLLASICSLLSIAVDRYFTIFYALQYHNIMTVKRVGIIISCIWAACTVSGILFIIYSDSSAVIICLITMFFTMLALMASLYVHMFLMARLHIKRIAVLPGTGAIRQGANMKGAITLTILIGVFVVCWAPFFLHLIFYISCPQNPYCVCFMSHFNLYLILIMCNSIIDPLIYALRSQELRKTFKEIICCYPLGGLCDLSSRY
Note: assay procedure not described here.

SMILES | AC50 [1] [µM] | AC50 [2] [µM] | AC50 [3] [µM] | AC50 [4] [µM] | AC50 [5] [µM] | AC50 [6] [µM] | AC50 [7] [µM] | AC50 [8] [µM] | AC50 [9] [µM] | AC50 [10] [µM] | AC50 [11] [µM] | AC50 [12] [µM] | AC50 [13] [µM] | AC50 [14] [µM]
CC/C=C\C/C=C\C/C=C\CCCCCCCC(=O)O [LINOLENIC ACID] | > 30 | > 30 | > 30 | > 10 | > 30 | > 30 | > 30 | > 30 | > 30 | > 30 |  |  |  | 
Nc1nc2ccc(OC(F)(F)F)cc2s1 [RILUZOLE] | > 30 | > 30 | > 30 | > 30 | > 30 | > 30 | > 30 |  | > 30 |  | > 30 |  |  | 
O=C1CN=C(c2ccccc2)c2cc(Cl)ccc2N1CC(F)(F)F [HALAZEPAM] | > 30 | > 30 | > 30 | > 30 | > 30 | > 30 | > 30 | > 30 | 1.2 |  | > 30 |  |  | 
[H]/N=C(/N)c1ccc(NCc2nc3cc(C(=O)N(CCC(=O)O)c4ccccn4)ccc3n2C)cc1 [DABIGATRAN] | > 30 | > 30 | > 30 | > 30 | > 30 | > 30 | > 30 | > 30 |  | > 30 |  |  |  | 
CCCOc1ccc(C(=O)OCCN(CC)CC)cc1N [PROPARACAINE] | > 30 | > 30 | > 30 | > 30 | > 30 | > 30 | > 30 | 6.4 | > 30 |  |  |  |  | 
C=C1CC[C@@]2(O)[C@H]3Cc4ccc(O)c5c4[C@@]2(CCN3CC2CC2)[C@H]1O5 | > 30 | > 30 | > 30 | > 30 | > 30 | > 30 | > 30 | 28 |  |  |  |  |  | 
COc1ccc(C(=O)N2CCN(c3ccc4c(c3)CCC(=O)N4)CC2)cc1OC [VESNARINONE] | > 30 | > 30 | > 30 | > 30 | > 30 | > 30 | > 30 | > 30 | > 30 |  | > 30 |  |  | 
Cc1cccc(C)c1NC(=O)C1CCCCN1C (centres undefined) [MEPIVACAINE] | > 30 | > 30 | > 30 | > 30 | > 30 | > 30 | > 30 | > 30 | > 30 |  | > 30 |  |  | 
C[C@H]1C[C@@H]2[C@H]([C@@H](O)C[C@@]3(C)[C@H]2CC[C@]3(O)C(=O)COC(=O)CCC(=O)O)[C@@]2(C)C=CC(=O)C=C12 [METHYLPREDNISOLONE HEMISUCCINATE] | > 30 | > 30 | > 30 | > 30 | > 30 | > 30 | > 30 | > 30 | > 30 |  |  |  |  | 
Cc1ccc(-c2nc3ccc(C)cn3c2CC(=O)N(C)C)cc1 [ZOLPIDEM] | > 30 | > 30 | > 30 |  | > 30 | > 30 | > 30 |  | > 30 | > 10 | > 30 | 6.76 | > 30 | > 30
Nc1ncnc2c1ncn2[C@@H]1O[C@H](COP(=O)(O)O)[C@@H](O)[C@H]1O [ADENOSINE PHOSPHATE] | > 30 | 9.5 | > 30 | > 30 | > 30 | > 30 | > 30 | 15 | > 30 |  |  |  |  | 
CCCCC(C)(O)C/C=C/[C@H]1[C@H](O)CC(=O)[C@@H]1CCCCCCC(=O)OC (some centres undefined) [MISOPROSTOL] | > 30 | > 30 | > 30 | > 30 | > 30 | > 30 | > 30 | > 30 | > 30 |  |  |  |  | 
CCCCCOC(=O)Nc1nc(=O)n([C@@H]2O[C@H](C)[C@@H](O)[C@H]2O)cc1F [CAPECITABINE] | > 30 | > 30 | > 30 | > 30 | > 30 | > 30 | > 30 | > 30 | > 30 |  | > 30 |  |  | 
CCCCCCC(C)(C)c1cc(O)c2c(c1)OC(C)(C)C1CCC(=O)CC21 (centres undefined) [NABILONE] | > 30 | > 30 | > 30 | > 30 | > 30 | > 30 | > 30 | > 30 | > 30 |  | > 30 |  |  | 
